Consider 7 molecules from ChEMBL document CHEMBL1201862, “PubChem BioAssay data set” (2004).

Assay in all cases: NCI-60 cell line screen, 48 h
The subject of experiment [1] is MDA-MB-231.
The subject of experiment [2] is A498.
Experiment [3] deals with M14.
Experiment [4] deals with ACHN.
In experiment [5] the test system is DU-145.
Experiment [6] has as its system Hs-578T.
Experiment [7] deals with NCI-H460.
The subject of experiment [8] is PC-3.
The subject of experiment [9] is TK-10.
Experiment [10] relates to SF-539.
Experiment [11] relates to OVCAR-3.
The subject of experiment [12] is NCI-H23.
The subject of experiment [13] is RPMI-8226.
In experiment [14] the test system is SK-MEL-5.
Experiment [15] concerns RXF 393.
Experiment [16] deals with K562.
Experiment [17] has as its system HOP-92.
Experiment [18] concerns HCT-15.
Experiment [19] has as its system BT-549.
The test system of experiment [20] is HCC 2998.

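Each compound was tested at five concentrations against cells in 96-well plates for 48 hours. GI50: concentration for 50% inhibition of growth.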 Calls of active or inactive are those of the source. Rule as the data show it: active = GI50 up to about 1.1 µM and inactive = higher. A value given as a limit tells only on which side of the number the result lay.

Consider `COc1ccc(C[C@H]2NC[C@H](O)[C@H]2OC(C)=O)cc1` [ANISOMYCIN], for which the GI50 was 0.0159 µM (active) in [1]; 0.0324 µM (active) in experiment [2]; < 0.0136 µM (active) in [3]; < 0.0144 µM (active) in [4]; 0.0223 µM (active) in [5]; 0.01 µM (active) in experiment [6]. Moreover, the GI50 in experiment [7] was 0.0169 µM (active); in [8] it was < 0.0191 µM (active); in experiment [9], 0.0479 µM (active); in experiment [10], 0.0213 µM (active); in [11], 0.0263 µM (active); in experiment [12] it was 0.0316 µM (active). The GI50 in experiment [13] is 0.0243 µM (active); in [14], 0.0133 µM (active); in experiment [15], 0.0483 µM (active); in [16], < 0.0124 µM (active); in [17], 0.016 µM (active); in experiment [18], 0.0326 µM. The figures for the GI50 in [19] and in experiment [20] were 0.0411 µM (active) and 0.0229 µM (active), respectively.
Regarding `Nc1nc(Cl)c(N)c(NCC2(CO)CC(OCc3ccccc3)C2)n1` (stereo not given), the GI50 in experiment [1] was > 100 µM (inactive); in experiment [2], 76.4 µM (inactive); in experiment [3], > 100 µM (inactive); in experiment [4], > 100 µM (inactive); in experiment [5], > 100 µM (inactive); in experiment [6] it was > 100 µM (inactive). In addition, the GI50 is > 100 µM (inactive) in [7]; > 100 µM (inactive) in experiment [8]; 44 µM (inactive) in experiment [9]; > 100 µM (inactive) in [10]; > 100 µM (inactive) in experiment [11]; 4.17 µM (inactive) in experiment [12]. Moreover, the GI50 in experiment [13] was > 100 µM (inactive); in [14], 20.4 µM (inactive); in experiment [15], > 100 µM (inactive); in experiment [16], 74.6 µM (inactive); in experiment [17], > 100 µM (inactive); in experiment [18], above 100 µM. The GI50 in experiment [19] was > 100 µM (inactive); in experiment [20], 82 µM (inactive).
Take `CO/C=C(/C(=O)OC)c1ccccc1[C@H]1C[C@@H]1c1ccccc1`: the GI50 in [1] is 31.6 µM (inactive); in experiment [2] it was 27.9 µM (inactive); in [3], 19.2 µM (inactive); in experiment [4], 22.5 µM (inactive); in experiment [5] it was 27.2 µM (inactive); in [6] it was 33.7 µM (inactive). Moreover, the GI50 in [7] is 19.7 µM (inactive); in experiment [8] it was 22.8 µM (inactive); in [9], 28 µM (inactive); in experiment [10], 21.2 µM (inactive); in [11], 18.5 µM (inactive); in [12], 23.2 µM (inactive). Moreover, the GI50 in [13] is 12.6 µM (inactive); in experiment [14], 8.02 µM (inactive); in experiment [15], 49.3 µM (inactive); in experiment [16], 26.2 µM (inactive); in experiment [17] it was 21.3 µM (inactive); in [18] it was 23.4 µM. Also, the GI50 in experiment [19] is 20.5 µM (inactive); in experiment [20], 20.6 µM (inactive).
As for `Fc1cc(C2=C[C@H](c3ccc4c(c3)OCO4)NC(=S)N2)c(Cl)cc1Cl`, the GI50 was 23.8 µM (inactive) in [1]; 20.8 µM (inactive) in experiment [2]; 40.4 µM (inactive) in [3]; 28.8 µM (inactive) in experiment [4]; 49 µM (inactive) in experiment [5]; 70 µM (inactive) in [6]. For the same molecule, the GI50 was 25.5 µM (inactive) in [7]; 21.4 µM (inactive) in [8]; 28.8 µM (inactive) in experiment [9]; 46.7 µM (inactive) in [10]; 30.2 µM (inactive) in experiment [11]; 60.8 µM (inactive) in [12]. Further, the GI50 is 22.9 µM (inactive) in experiment [13]; 10.3 µM (inactive) in [14]; 23 µM (inactive) in experiment [15]; 32.1 µM (inactive) in [16]; 25.9 µM (inactive) in experiment [17]; 37.4 µM in [18]. Besides, the GI50 in experiment [19] was 57 µM (inactive); in [20] it was 23.2 µM (inactive).
On to `Cc1nc2ccccc2n1Cc1nnc(-c2ccccc2)o1`, for which the GI50 in [1], in experiment [2], in experiment [3], in experiment [4], in experiment [5] and in experiment [6] was > 100 µM (inactive) each time. Further, the GI50 in [7] was 91 µM (inactive); in experiment [8], > 100 µM (inactive); in experiment [9] it was > 100 µM (inactive); in experiment [10], 27.2 µM (inactive); in [11], > 100 µM (inactive); in experiment [12], > 100 µM (inactive). Moreover, the GI50 in experiment [13] is 75 µM (inactive); in experiment [14] it was 55 µM (inactive); in [15] it was 35.9 µM (inactive); in experiment [16], 33.9 µM (inactive); in experiment [17], > 100 µM (inactive); in experiment [18] it was above 100 µM. Also, the GI50 in [19] and in experiment [20] was > 100 µM (inactive) in each case.
With `N#Cc1nc(-c2ccccn2)c(-c2ccccn2)nc1C#N`, the GI50 in [1] is 10.7 µM (inactive); in [2] it was 2.09 µM (inactive); in [3], 1.59 µM (inactive); in experiment [4], 1.11 µM (active); in experiment [5], 2.32 µM (inactive); in [6], 11.2 µM (inactive). Besides, the GI50 was 0.47 µM (active) in [7]; 4.88 µM (inactive) in experiment [8]; 1.82 µM (inactive) in experiment [9]; 4.19 µM (inactive) in experiment [10]; 3.79 µM (inactive) in experiment [11]; 2.9 µM (inactive) in [12]. The GI50 in [13] was 2.83 µM (inactive); in experiment [14] it was 1.85 µM (inactive); in [15], 3.58 µM (inactive); in experiment [16], 5.85 µM (inactive); in experiment [17], 7.96 µM (inactive); in [18] it was 0.682 µM. The GI50 was 2.36 µM (inactive) in experiment [19] and 3.66 µM (inactive) in [20].
In the case of `CC(=O)O[C@@H]1CO[C@H]2O[C@H]3[C@@H](C(C=O)=C[C@H](O)[C@@H]4C5=C(C(C)C)CC[C@]5(C)CC[C@@]34C)[C@@]2(O)C1=O` [STRIATIN E], the GI50 in experiment [1] is 0.184 µM (active); in experiment [2] it was 0.305 µM (active); in experiment [3], 0.262 µM (active); in experiment [4], 0.114 µM (active); in experiment [5] it was 0.716 µM (active); in [6] it was 0.221 µM (active). Moreover, the GI50 is 0.255 µM (active) in experiment [7]; 0.0968 µM (active) in experiment [8]; 0.229 µM (active) in experiment [9]; 0.177 µM (active) in experiment [10]; 0.139 µM (active) in experiment [11]; 0.209 µM (active) in experiment [12]. Besides, the GI50 is 0.0592 µM (active) in experiment [13]; 0.267 µM (active) in [14]; 0.106 µM (active) in experiment [15]; 0.0869 µM (active) in [16]; 0.21 µM (active) in [17]; 0.2 µM in experiment [18]. Further, the GI50 was 0.12 µM (active) in [19] and 0.519 µM (active) in [20].
